Experiments:
Experiment in all cases: relative viability (nuclei count vs DMSO), 5 days (fraction); higher = more cells survive
Darinaparsin + Foretinib = compound: C[As](C)SC[C@H](NC(=O)CC[C@H](N)C(=O)O)C(=O)NCC(=O)O [Darinaparsin] + COc1cc2c(Oc3ccc(NC(=O)C4(C(=O)Nc5ccc(F)cc5)CC4)cc3F)ccnc2cc1OCCCN1CCOCC1 [Foretinib] (partner 0.25 µM)
Method in brief: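 Dosing by pin tool came one day after lung cancer cell lines were seeded in 1536-well plates, using either one drug or a fixed anchor-drug dose plus five library-drug doses (not always all listed) in √10 steps. After 5 days, nuclei were counted on 4× images. Relative viability is treated-well nuclei count divided by vehicle-well nuclei count, and values are medians of duplicate plates.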

AZ628 = compound: CC1=C(C=C(C=C1)NC(=O)C2=CC(=CC=C2)C(C)(C)C#N)NC3=CC4=C(C=C3)N=CN(C4=O)C [AZ628]
Method in brief: (§1)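 Five library-drug doses spaced by √10 were pinned onto vehicle-anchored 1536-well plates of lung cancer cell lines that had been kept overnight at 37 °C. Cells went 5 days without medium change, then were fixed, permeabilised and Hoechst-stained together, imaged at 4× and counted by MetaXpress. Viability is the ratio of treated-well to vehicle-well nuclei, taken as a median over plates. Plates required control CV below 25% and at least one doubling.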

QS11 = compound: C1CC2=C(C1)C=C(C=C2)OC3=NC(=C4C(=N3)N(C=N4)CC5=CC=C(C=C5)C6=CC=CC=C6)N[C@@H](CC7=CC=CC=C7)CO [QS11]
Method in brief: as §1

Darinaparsin = compound: C[As](C)SC[C@H](NC(=O)CC[C@H](N)C(=O)O)C(=O)NCC(=O)O [Darinaparsin]
Method in brief: as §1

HCC-78 was tested, and the relative viability (Darinaparsin + Foretinib; first compound 0.08 µM) was 0.555, the relative viability (Darinaparsin + Foretinib; first compound 0.8 µM) was 0.492 and the relative viability (Darinaparsin + Foretinib; first compound 2.53 µM) was 0.53. For the same cell line, the relative viability (Darinaparsin + Foretinib; first compound 8 µM) was 0.483, the relative viability (AZ628; 0.08 µM) was 1.09 and the relative viability (AZ628; 0.253 µM) was 0.911. For the same cell line, the relative viability (AZ628; 0.8 µM) was 1.08, the relative viability (AZ628; 2.53 µM) was 1.05 and the relative viability (AZ628; 8 µM) was 0.932. The relative viability (QS11; 0.08 µM) was 0.958, the relative viability (QS11; 0.253 µM) was 0.955 and the relative viability (QS11; 0.8 µM) was 0.94. It also gave a relative viability (QS11; 2.53 µM) of 1.03, a relative viability (QS11; 8 µM) of 1.05 and a relative viability (Darinaparsin; 0.08 µM) of 1. The relative viability (Darinaparsin; 0.8 µM) was 0.918, the relative viability (Darinaparsin; 2.53 µM) was 0.936 and the relative viability (Darinaparsin; 8 µM) was 1.09.

For HCC-366, the relative viability (Darinaparsin + Foretinib; first compound 0.08 µM) was 0.905, the relative viability (Darinaparsin + Foretinib; first compound 0.8 µM) was 0.91 and the relative viability (Darinaparsin + Foretinib; first compound 2.53 µM) was 0.965. For the same cell line, the relative viability (Darinaparsin + Foretinib; first compound 8 µM) was 1.14, the relative viability (AZ628; 0.08 µM) was 1.01 and the relative viability (AZ628; 0.253 µM) was 0.952. For the same cell line, the relative viability (AZ628; 0.8 µM) was 0.884, the relative viability (AZ628; 2.53 µM) was 0.955 and the relative viability (AZ628; 8 µM) was 0.876. For the same cell line, the relative viability (QS11; 0.08 µM) was 1.01, the relative viability (QS11; 0.253 µM) was 1.01 and the relative viability (QS11; 2.53 µM) was 0.98. For the same cell line, the relative viability (QS11; 8 µM) was 0.447, the relative viability (Darinaparsin; 0.08 µM) was 1.01 and the relative viability (Darinaparsin; 0.8 µM) was 1.07. For the same cell line, the relative viability (Darinaparsin; 2.53 µM) was 1.03 and the relative viability (Darinaparsin; 8 µM) was 1.32.

Cell Line HCC-827 has a relative viability (Darinaparsin + Foretinib; first compound 0.08 µM) of 1.16, a relative viability (Darinaparsin + Foretinib; first compound 0.8 µM) of 1.09 and a relative viability (Darinaparsin + Foretinib; first compound 2.53 µM) of 1.02. It also gave a relative viability (Darinaparsin + Foretinib; first compound 8 µM) of 1.06, a relative viability (AZ628; 0.08 µM) of 1.03 and a relative viability (AZ628; 0.253 µM) of 1.01. The relative viability (AZ628; 0.8 µM) was 1.03, the relative viability (AZ628; 2.53 µM) was 1.07 and the relative viability (AZ628; 8 µM) was 0.839. For the same cell line, the relative viability (QS11; 0.08 µM) was 1, the relative viability (QS11; 0.253 µM) was 1.13 and the relative viability (QS11; 0.8 µM) was 0.813. For the same cell line, the relative viability (QS11; 2.53 µM) was 1.02, the relative viability (QS11; 8 µM) was 0.931 and the relative viability (Darinaparsin; 0.08 µM) was 1.09. For the same cell line, the relative viability (Darinaparsin; 0.8 µM) was 1.02, the relative viability (Darinaparsin; 2.53 µM) was 1.07 and the relative viability (Darinaparsin; 8 µM) was 1.16.

In the case of HOP-62, the relative viability (Darinaparsin + Foretinib; first compound 0.08 µM) is reported as 1.2, the relative viability (Darinaparsin + Foretinib; first compound 0.8 µM) is reported as 1.16 and the relative viability (Darinaparsin + Foretinib; first compound 2.53 µM) is reported as 0.969. The relative viability (Darinaparsin + Foretinib; first compound 8 µM) was 1.13, the relative viability (AZ628; 0.08 µM) was 1.07 and the relative viability (AZ628; 0.253 µM) was 1.07. It also gave a relative viability (AZ628; 0.8 µM) of 0.937, a relative viability (AZ628; 2.53 µM) of 1.09 and a relative viability (AZ628; 8 µM) of 0.573. It also gave a relative viability (QS11; 0.08 µM) of 1.06, a relative viability (QS11; 0.253 µM) of 1.09 and a relative viability (QS11; 0.8 µM) of 0.867. The relative viability (QS11; 2.53 µM) was 0.922, the relative viability (QS11; 8 µM) was 0.88 and the relative viability (Darinaparsin; 0.08 µM) was 1.07. The relative viability (Darinaparsin; 0.8 µM) was 1.08, the relative viability (Darinaparsin; 2.53 µM) was 0.95 and the relative viability (Darinaparsin; 8 µM) was 1.08.

IA-LM was tested, and the relative viability (Darinaparsin + Foretinib; first compound 0.08 µM) was 1.51, the relative viability (Darinaparsin + Foretinib; first compound 0.8 µM) was 1.27 and the relative viability (Darinaparsin + Foretinib; first compound 2.53 µM) was 1.35. It also gave a relative viability (Darinaparsin + Foretinib; first compound 8 µM) of 1.55, a relative viability (AZ628; 0.08 µM) of 1.15 and a relative viability (AZ628; 0.253 µM) of 0.871. It also gave a relative viability (AZ628; 0.8 µM) of 0.589, a relative viability (AZ628; 2.53 µM) of 0.607 and a relative viability (AZ628; 8 µM) of 0.266. It also gave a relative viability (QS11; 0.08 µM) of 1, a relative viability (QS11; 0.253 µM) of 1.1 and a relative viability (QS11; 0.8 µM) of 0.576. For the same cell line, the relative viability (QS11; 2.53 µM) was 0.902, the relative viability (QS11; 8 µM) was 0.996 and the relative viability (Darinaparsin; 0.08 µM) was 1.16. It also gave a relative viability (Darinaparsin; 0.8 µM) of 1.05, a relative viability (Darinaparsin; 2.53 µM) of 1.16 and a relative viability (Darinaparsin; 8 µM) of 1.12.

For LC-2-ad, the relative viability (Darinaparsin + Foretinib; first compound 0.08 µM) was 0.949, the relative viability (Darinaparsin + Foretinib; first compound 0.8 µM) was 1.02 and the relative viability (Darinaparsin + Foretinib; first compound 2.53 µM) was 0.987. It also gave a relative viability (Darinaparsin + Foretinib; first compound 8 µM) of 0.836, a relative viability (AZ628; 0.08 µM) of 1.07 and a relative viability (AZ628; 0.253 µM) of 0.911. It also gave a relative viability (AZ628; 0.8 µM) of 0.88, a relative viability (AZ628; 2.53 µM) of 0.928 and a relative viability (AZ628; 8 µM) of 0.768. The relative viability (QS11; 0.08 µM) was 1.01, the relative viability (QS11; 0.253 µM) was 1.05 and the relative viability (QS11; 0.8 µM) was 0.808. For the same cell line, the relative viability (QS11; 2.53 µM) was 0.972, the relative viability (QS11; 8 µM) was 0.955 and the relative viability (Darinaparsin; 0.08 µM) was 1.06. For the same cell line, the relative viability (Darinaparsin; 0.8 µM) was 0.996, the relative viability (Darinaparsin; 2.53 µM) was 1.01 and the relative viability (Darinaparsin; 8 µM) was 1.2.

LCLC-103H gave a relative viability (Darinaparsin + Foretinib; first compound 0.08 µM) of 0.858, a relative viability (Darinaparsin + Foretinib; first compound 0.8 µM) of 0.745 and a relative viability (Darinaparsin + Foretinib; first compound 2.53 µM) of 0.626. It also gave a relative viability (Darinaparsin + Foretinib; first compound 8 µM) of 0.858, a relative viability (AZ628; 0.08 µM) of 0.99 and a relative viability (AZ628; 0.253 µM) of 0.891. The relative viability (AZ628; 0.8 µM) was 1.07, the relative viability (AZ628; 2.53 µM) was 0.998 and the relative viability (AZ628; 8 µM) was 0.903. For the same cell line, the relative viability (QS11; 0.08 µM) was 1.01, the relative viability (QS11; 0.253 µM) was 1 and the relative viability (QS11; 0.8 µM) was 0.749. For the same cell line, the relative viability (QS11; 2.53 µM) was 0.988, the relative viability (QS11; 8 µM) was 1.05 and the relative viability (Darinaparsin; 0.08 µM) was 1.15. The relative viability (Darinaparsin; 0.8 µM) was 0.923, the relative viability (Darinaparsin; 2.53 µM) was 0.976 and the relative viability (Darinaparsin; 8 µM) was 1.15.

LK-2 was tested, and the relative viability (Darinaparsin + Foretinib; first compound 0.08 µM) was 1.98, the relative viability (Darinaparsin + Foretinib; first compound 2.53 µM) was 0.769 and the relative viability (Darinaparsin + Foretinib; first compound 8 µM) was 1.83. It also gave a relative viability (AZ628; 0.08 µM) of 1.29, a relative viability (AZ628; 0.253 µM) of 0.983 and a relative viability (AZ628; 0.8 µM) of 0.977. For the same cell line, the relative viability (AZ628; 2.53 µM) was 0.857, the relative viability (AZ628; 8 µM) was 0.467 and the relative viability (QS11; 0.08 µM) was 0.99. The relative viability (QS11; 0.253 µM) was 1.21, the relative viability (QS11; 0.8 µM) was 1.09 and the relative viability (QS11; 2.53 µM) was 0.956. For the same cell line, the relative viability (QS11; 8 µM) was 1.3, the relative viability (Darinaparsin; 0.08 µM) was 1.16 and the relative viability (Darinaparsin; 0.8 µM) was 0.83. For the same cell line, the relative viability (Darinaparsin; 2.53 µM) was 0.982 and the relative viability (Darinaparsin; 8 µM) was 1.26.

LOU-NH91 gave a relative viability (Darinaparsin + Foretinib; first compound 0.08 µM) of 0.926, a relative viability (Darinaparsin + Foretinib; first compound 0.8 µM) of 0.92 and a relative viability (Darinaparsin + Foretinib; first compound 2.53 µM) of 0.961. For the same cell line, the relative viability (Darinaparsin + Foretinib; first compound 8 µM) was 0.954, the relative viability (AZ628; 0.08 µM) was 0.971 and the relative viability (AZ628; 0.253 µM) was 0.926. The relative viability (AZ628; 0.8 µM) was 0.958, the relative viability (AZ628; 2.53 µM) was 0.963 and the relative viability (AZ628; 8 µM) was 0.797. The relative viability (QS11; 0.08 µM) was 0.979, the relative viability (QS11; 0.253 µM) was 0.93 and the relative viability (QS11; 0.8 µM) was 0.78. It also gave a relative viability (QS11; 2.53 µM) of 0.98, a relative viability (QS11; 8 µM) of 0.966 and a relative viability (Darinaparsin; 0.08 µM) of 1.03. The relative viability (Darinaparsin; 0.8 µM) was 0.921, the relative viability (Darinaparsin; 2.53 µM) was 0.954 and the relative viability (Darinaparsin; 8 µM) was 1.02.

From the supplement of paper PMC10307832
